Source: paper PMC9890698 (BMC Biology, 2023)
Where “and” joins values, the source holds several entries; their conditions need not be identical. Identical values can stand only once.

How the values were obtained:
P2Y1-R = test system: P2Y1-R; set-up: method as in PMID 29724785; details: Alzheimer's disease mouse model, result in words; cited from earlier work
[1] = test system: washed murine platelets (P2Y1-R/Gαq signaling); assay: IP1 accumulation assay (HTRF) in washed murine platelets; assay type: cell-based, mouse; details: MRS2179 10 μM, 2 h
Procedure: As performed in HEK293T cells, we thus quantified intracellular IP1 levels to monitor Gαq protein-dependent signaling pathways.
Platelet-rich plasma (PRP) was obtained by mixing blood with 1 volume of modified Hepes Tyrode’s buffer (137 mM NaCl, 2 mM KCl, 12 mM NaHCO3, 0.3 mM NaH2PO4, 1 mM MgCl2, 2 mM CaCl2, 5.5 mM glucose, 5 mM HEPES, and 0.35% (w/v) BSA, pH 6.7) followed by a centrifugation at 150 g for 2 min at 37 °C. Then, platelets were pelleted by centrifugation at 1000 g for 4 min, resuspended in modified Hepes Tyrode’s buffer (pH 7.4), adjusted to 3.10^8 platelets/mL in the presence of 0.02 U/mL of apyrase and 10 μM indomethacin and rested for 45 minutes at 37°C before platelet stimulation. PGI2 (0.5 μM) was added before centrifugation steps to avoid platelet activation.
Quantification of intracellular IP1 was performed using the HTRF (Homogeneous Time Resolved Fluorescence) IP1 competitive immunoassay (IP-One Tb kit. Cisbio. France) according to the manufacturer’s instructions. Briefly, 20,000 HEK293T/17 cells or 3.10^6 platelets were distributed in a 384-well white microplate (Greiner) and incubated with the indicated molecules for 30 min or 2 h at 37 °C in the presence of 50 mM of LiCl to prevent IP1 degradation. After addition of d2-labeled IP1 (acceptor) and anti-IP1-Cryptate (donor) for 1 h, the specific FRET signals were calculated by the fluorescence ratio of the acceptor and donor emission signal (665/620 nm) collected using a modified Infinite F500 (Tecan Group Ltd). Conversion of the HTRF ratio of each sample into IP1 concentrations was performed on the basis of a standard curve to determine the linear dynamic range of the assay.

Human P2Y1-R [2] = molecular target: T1, Human P2Y1-R (Homo sapiens, UniProt P47900); assay: IP1 accumulation assay (HTRF) in HEK293T cells expressing P2Y1-R; assay type: cell-based; details: MRS2179 10 μM, 2 h
T1 construct: expressed in transfected cells; host or cells: HEK293T/17
T1 sequence (P47900 whole entry): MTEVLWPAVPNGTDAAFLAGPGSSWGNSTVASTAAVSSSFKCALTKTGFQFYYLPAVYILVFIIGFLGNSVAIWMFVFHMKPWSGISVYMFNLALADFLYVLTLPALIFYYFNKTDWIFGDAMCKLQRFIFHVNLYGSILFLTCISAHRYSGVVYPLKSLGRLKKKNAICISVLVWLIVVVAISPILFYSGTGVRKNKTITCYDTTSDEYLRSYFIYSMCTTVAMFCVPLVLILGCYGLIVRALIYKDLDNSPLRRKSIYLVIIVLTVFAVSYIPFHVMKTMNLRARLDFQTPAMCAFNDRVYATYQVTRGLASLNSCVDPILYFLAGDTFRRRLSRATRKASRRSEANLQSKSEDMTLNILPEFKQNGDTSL
From the text: Since Gαq protein activation is known to induce PLC activation leading to IP3 and subsequent cytosolic calcium release, we analyzed the constitutive Gαq-dependent P2Y1-R signaling by quantifying intracellular inositol monophosphate (IP1) using a monoclonal antibody-based competitive ELISA. IP1 is a downstream metabolite of IP3 that accumulates in cells following Gαq protein-coupled receptor activation, making it an ideal readout for Gαq protein-dependent signaling pathways.

Human P2Y1-R [3] = molecular target: T1, Human P2Y1-R; assay: Gαq protein activation BRET2 assay (Gαq-RLuc8/GFP2-Gγ2/Gβ1) in HEK293T cells expressing P2Y1-R; assay type: cell-based; set-up: ADP-modulated BRET / MRS2179-modulated BRET: unit not given here; details: for G protein signaling, Ligand-modulated BRET (% of maximum MRS2179 mean value): Figure 4a, individual replicates
[4] = G protein signaling, Fig. 4a, 1 min

CNc1ncnc2c1ncn2[C@H]1C[C@H](OP(=O)(O)O)[C@@H](COP(=O)(O)O)O1 [MRS2179]
Effect on network homeostasis, spatial learning and memory (P2Y1-R): restored network homeostasis and protected from the decline of spatial learning and memory
IP1 concentration (% matched basal values) ([1]; murine platelets, individual mice): 42.6495 % matched basal values and 45.455 % matched basal values and 38.903 % matched basal values and 51.5072 % matched basal values and 54.7749 % matched basal values and 40.3524 % matched basal values and 43.9466 % matched basal values and 64.234 % matched basal values and 61.4369 % matched basal values and 43.9485 % matched basal values and 57.6391 % matched basal values and 59.347 % matched basal values and 42.2435 % matched basal values
Effect on IP1 levels ([1]; washed murine platelets, ADP 100 μM, Gq inhibitor 100 nM, apyrase 0.02 U/mL, result in words): decreased IP1 levels
Effect on IP1 production (Human P2Y1-R [2]; ADP 100 μM, Gq inhibitor 100 nM, result in words): strongly inhibited
IP1 concentration (Human P2Y1-R [2]; P2Y1-R): 323.411 nM and 417.936 nM and 377.702 nM and 245.513 nM and 385.824 nM
Maximal efficacy (Emax ± s.e.m.), MRS2179-modulated BRET (Human P2Y1-R [3]; Fig. 1f, 1 min stimulation, difference in BRET signal with and without ligand): 0.1224 ± 0.01335
EC50 (Human P2Y1-R [3]; Fig. 1f, MRS2179 inverse agonism on Gαq protein activity, 1 min): 11.1 µM
pEC50 ± s.e.m. (Human P2Y1-R [3]; Fig. 1f, inverse agonism on Gαq protein activity, 1 min): 4.955 ± 0.1405
G protein signaling, Ligand-modulated BRET (% of maximum MRS2179 mean value) (Human P2Y1-R [3]; [Ligand] 1.00E-04 M): 119.465 % of maximum MRS2179 mean value and 98.3727 % of maximum MRS2179 mean value and 97.2091 % of maximum MRS2179 mean value and 96.9774 % of maximum MRS2179 mean value and 99.1946 % of maximum MRS2179 mean value and 88.7807 % of maximum MRS2179 mean value
G protein signaling, Ligand-modulated BRET (% of maximum MRS2179 mean value) (Human P2Y1-R [3]; [Ligand] 1.00E-05 M): 56.3081 % of maximum MRS2179 mean value and 33.7445 % of maximum MRS2179 mean value and 25.9535 % of maximum MRS2179 mean value and 52.677 % of maximum MRS2179 mean value and 40.3542 % of maximum MRS2179 mean value and 35.9046 % of maximum MRS2179 mean value
G protein signaling, Ligand-modulated BRET (% of maximum MRS2179 mean value) (Human P2Y1-R [3]; [Ligand] 1.00E-06 M): 9.486 % of maximum MRS2179 mean value and 10.5017 % of maximum MRS2179 mean value and 11.1842 % of maximum MRS2179 mean value and 16.1238 % of maximum MRS2179 mean value and -1.632 % of maximum MRS2179 mean value and 9.136 % of maximum MRS2179 mean value
G protein signaling, Ligand-modulated BRET (% of maximum MRS2179 mean value) (Human P2Y1-R [3]; [Ligand] 1.00E-07 M): -1.306 % of maximum MRS2179 mean value and -6.5129 % of maximum MRS2179 mean value and -11.3924 % of maximum MRS2179 mean value and -9.0003 % of maximum MRS2179 mean value and -8.705 % of maximum MRS2179 mean value and -1.657 % of maximum MRS2179 mean value
G protein signaling, Ligand-modulated BRET (% of maximum MRS2179 mean value) (Human P2Y1-R [3]; [Ligand] 1.00E-08 M): 0.5671 % of maximum MRS2179 mean value and -5.257 % of maximum MRS2179 mean value and -11.3188 % of maximum MRS2179 mean value and -7.6778 % of maximum MRS2179 mean value and -4.305 % of maximum MRS2179 mean value and -3.069 % of maximum MRS2179 mean value
G protein signaling, Ligand-modulated BRET (% of maximum MRS2179 mean value) (Human P2Y1-R [3]; [Ligand] 1.00E-09 M): -1.107 % of maximum MRS2179 mean value and -5.538 % of maximum MRS2179 mean value and -15.6317 % of maximum MRS2179 mean value and -13.6938 % of maximum MRS2179 mean value and -9.3466 % of maximum MRS2179 mean value and -3.722 % of maximum MRS2179 mean value
G protein signaling, Ligand-modulated BRET (% of maximum MRS2179 mean value) (Human P2Y1-R [3]; [Ligand] 1.00E-10 M): -2.846 % of maximum MRS2179 mean value and -13.4143 % of maximum MRS2179 mean value and -1.422 % of maximum MRS2179 mean value and -10.0078 % of maximum MRS2179 mean value and -9.182 % of maximum MRS2179 mean value and 0.7769 % of maximum MRS2179 mean value
EC50 (Human P2Y1-R [3]; [4]): 15.2 µM
pEC50 ± s.e.m. (Human P2Y1-R [3]; [4]): 4.817 ± 0.0671
Emax ± s.e.m. (Human P2Y1-R [3]; G protein signaling, Fig. 4a, 1 min, normalized to the mean value of maximal MRS2179 response, in %): 115.7 ± 5.057
Behaviour on P2Y1-R-dependent constitutive Gαq protein activation (Human P2Y1-R [3]; HEK293T cells, result in words): inverse agonist
MRS2179-modulated BRET (Human P2Y1-R [3]; [MRS2179] 1.00E-04 M, 1 min): 0.06995 and 0.1332 and 0.1164 and 0.136 and 0.09077
